Reference: ChEMBL document CHEMBL4627246, “Pyroglutamide-Based P2X7 Receptor Antagonists Targeting Inflammatory Bowel Disease” (J Med Chem, 2020)

How the values were obtained:
Format in all cases: cell-based
[1] = test system: HCT-15; test: Cytotoxicity against human HCT15 cells assessed as effect on cell growth at 10 uM incubated for 48 hrs by sulforhodamine B assay; conditions: hct-15, 48 h
[2] = test system: NCI-H322M; test: Cytotoxicity against human NCI-H322M cells assessed as effect on cell growth at 10 uM incubated for 48 hrs by sulforhodamine B assay
[3] = test system: UO-31; test: Cytotoxicity against human UO31 cells assessed as effect on cell growth at 10 uM incubated for 48 hrs by sulforhodamine B assay; conditions: uo-31, 48 h
[4] = test system: NCI-H460; test: Cytotoxicity against human NCI-H460 cells assessed as effect on cell growth at 10 uM incubated for 48 hrs by sulforhodamine B assay; conditions: nci-h460, 48 h
[5] = test system: UACC-62; test: Cytotoxicity against human UACC62 cells assessed as effect on cell growth at 10 uM incubated for 48 hrs by sulforhodamine B assay; conditions: uacc-62, 48 h
[6] = test system: KM12; test: Cytotoxicity against human KM12 cells assessed as effect on cell growth at 10 uM incubated for 48 hrs by sulforhodamine B assay; conditions: km12, 48 h
[7] = test system: MDA-MB-468; test: Cytotoxicity against human MDA-MB-468 cells assessed as effect on cell growth at 10 uM incubated for 48 hrs by sulforhodamine B assay; conditions: mda-mb-468, 48 h
[8] = test system: MDA-MB-435; test: Cytotoxicity against human MDA-MB-435 cells assessed as effect on cell growth at 10 uM incubated for 48 hrs by sulforhodamine B assay; conditions: mda-mb-435, 48 h
[9] = test system: HT-29; test: Cytotoxicity against human HT-29 cells assessed as effect on cell growth at 10 uM incubated for 48 hrs by sulforhodamine B assay; conditions: ht-29, 48 h
[10] = test system: Hs-578T; test: Cytotoxicity against human Hs 578T cells assessed as effect on cell growth at 10 uM incubated for 48 hrs by sulforhodamine B assay
[11] = test system: DU-145; test: Cytotoxicity against human DU145 cells assessed as effect on cell growth at 10 uM incubated for 48 hrs by sulforhodamine B assay; conditions: du-145, 48 h
[12] = test system: U-251; test: Cytotoxicity against human U251 cells assessed as effect on cell growth at 10 uM incubated for 48 hrs by sulforhodamine B assay; conditions: u-251, 48 h
[13] = test system: RPMI-8226; test: Cytotoxicity against human RPMI8226 cells assessed as effect on cell growth at 10 uM incubated for 48 hrs by sulforhodamine B assay; conditions: rpmi-8226, 48 h
[14] = test system: BT-549; test: Cytotoxicity against human BT549 cells assessed as effect on cell growth at 10 uM incubated for 48 hrs by sulforhodamine B assay; conditions: bt-549, 48 h
[15] = test system: ACHN; test: Cytotoxicity against human ACHN cells assessed as effect on cell growth at 10 uM incubated for 48 hrs by sulforhodamine B assay
[16] = test system: MCF7; test: Cytotoxicity against human MCF7 cells assessed as effect on cell growth at 10 uM incubated for 48 hrs by sulforhodamine B assay; conditions: mcf7, 48 h
[17] = test system: CAKI-1; test: Growth inhibition of human Caki1 cells assessed as growth percentage at 10 uM incubated for 48 hrs by sulforhodamine B assay; conditions: caki-1, 48 h
[18] = test system: HCT-116; test: Cytotoxicity against human HCT116 cells assessed as effect on cell growth at 10 uM incubated for 48 hrs by sulforhodamine B assay; conditions: hct-116, 48 h
[19] = test system: IGROV-1; test: Cytotoxicity against human IGROV1 cells assessed as effect on cell growth at 10 uM incubated for 48 hrs by sulforhodamine B assay; conditions: igrov-1, 48 h
[20] = test system: SNB-75; test: Cytotoxicity against human SNB75 cells assessed as effect on cell growth at 10 uM incubated for 48 hrs by sulforhodamine B assay; conditions: snb-75, 48 h

Measured: Activity

O=C(NCc1ccc(Cl)cc1Cl)[C@@H]1CCC(=O)N1C(c1ccccc1)c1ccccc1
Non-Toxic: all assays above

COc1ccc(N2C(=O)[C@@H]3C/C(=C\N(C)C)C(=O)N3C2N(C)C)cc1 (stereo not given in full)
Non-Toxic: all assays above

COc1ccc(NC(=O)[C@@H]2C/C(=C\N(C)C)C(=O)N2)cc1
Non-Toxic: all assays above

O=C(NCc1ccccc1Cl)[C@@H]1CCC(=O)N1Cc1ccccc1Cl
Non-Toxic: all assays above

O=C1CCCC(C(=O)NCc2ccc(Cl)cc2Cl)N1 (stereo not given)
Non-Toxic: all assays above

O=C(NCc1ccccc1)[C@@H]1CCC(=O)N1Cc1ccc(Cl)cc1Cl
Non-Toxic: all assays above

O=C1N[C@H](C(=O)NCc2ccc(Cl)cc2Cl)CO1
Non-Toxic: all assays above

O=C1N[C@H](C(=O)NCc2ccc(Cl)cc2Cl)C/C1=C\N1CCOCC1
Non-Toxic: all assays above

COc1ccccc1CN1C(=O)[C@@H]2C/C(=C\N(C)C)C(=O)N2C1N(C)C (stereo not given in full)
Non-Toxic: all assays above

N#Cc1ccc(N2C(=O)CC[C@H]2C(=O)NCc2ccc(Cl)cc2Cl)cc1
Non-Toxic: all assays above

COc1cc(CN/C=C2\C[C@@H](C(=O)NCc3ccc(Cl)cc3Cl)NC2=O)cc(OC)c1OC
Non-Toxic: all assays above

O=C(NCC1CCCCC1)[C@@H]1CCC(=O)N1c1ccccc1
Non-Toxic: all assays above

COc1ccc(CN2C(=O)[C@@H]3C/C(=C\N(C)C)C(=O)N3C2N(C)C)c(OC)c1 (stereo not given in full)
Non-Toxic: all assays above

O=C(NCc1ccc(Cl)cc1Cl)[C@@H]1CCC(=O)N1C(c1ccc(Cl)cc1)c1ccc(Cl)cc1
Non-Toxic: all assays above
